Test results reported in US20260103730A1, “METHOD FOR RELEASING VIRAL VECTORS” (PCI Biotech AS, priority 2022, published 2026).

What was measured:
Jurkat cells [1] = assay: Hoechst 33258 entry by flow cytometry as measure of cell death / pore formation; format: cell-based
Protocol: (§1) Jurkat cells were incubated with 0.1 ug/mL or 1 ug/mL fimaporfin (TPCS2a, tetraphenyl chlorin disulfonate) for 10 minutes in complete RPMI 1640 medium. Following irradiation, the cells were incubated for 48 hours at 37° C. and 5% CO2, after which several analyses of cell health were performed.
(§2) Blue light irradiation/illumination was performed using LumiSource according to the manufacturer's protocol (PCI Biotech)
Entry of Hoechst 33258 (Thermo Fisher Scientific) into cells was performed as a measure of cell death. When Hoechst 33258 enters cells, it binds to double-stranded DNA generating a strong fluorescent signal. Entry of the stain into the cells requires the presence of pores in the plasma membrane and is a late-stage measure of cell health, i.e. cell death. Hoechst 33258 staining and flow cytometry was performed according to the manufacturer's protocol (Thermo Fisher Scientific).

HEK293T cells [2] = assay: Genomic DNA leakage into supernatant by ddPCR (albumin primers); format: cell-based, human; conditions: TPCS2a 5 μg/mL 10 min, irradiation 5 minutes, 2 hours incubation
Protocol: 75-80% confluent HEK293T cells were incubated with 5 μg/mL TPCS2a or 0.5% Tween 20 in complete DMEM for 10 minutes followed by irradiation for 5 minutes (where indicated). Blue light irradiation/illumination was performed using LumiSource according to the manufacturer's protocol (PCI Biotech). A negative control of complete DMEM containing the TPCS2a solvent was used to control for solvent effects on cell lysis.
Following irradiation, the cells were incubated for 2 hours at 37° C. and 5% CO2, after which supernatants were collected. Cell debris (if any) was eliminated by centrifugation. Genomic DNA from all samples was quantified by ddPCR (Bio-Rad QX600) using primers targeting human albumin DNA.
Albumin DNA values were normalised to the negative control.

HEK293 cells [3] = assay: LDH release assay (leakage of cytosolic material); format: cell-based; conditions: 10 min, assessed after 2 hours
Protocol: HEK293 cells were incubated with either 0.5 μg/mL TPCS2a or 0.5% Tween 20 in serum-free DMEM. Alternatively, HEK293 cells were incubated with 50 μg/mL TPCS2a in 10% serum supplemented DMEM for 10 minutes. The cells were subsequently irradiated with blue light for 5 minutes or received no irradiation. Blue light irradiation/illumination was performed using LumiSource according to the manufacturer's protocol (PCI Biotech). The negative control (Neg. Ctrl) was either serum-free DMEM or 10% Fetal Bovine Serum (FBS) supplemented DMEM containing the TPCS2a solvent to control for the effect of solvents on LDH leakage. Background absorbance values of the LDH assay was assessed using DMEM with increasing concentrations of FBS at 1%, 5% and 10%.
LDH release was performed as a measure of cell lysis and release of cytosolic material using CyQUANT LDH Cytotoxicity Assay (Thermo Fisher Scientific) according to manufacturer's protocol. Cells were seeded in 48 well plates one day prior to treatments in 400 μL. The following day, treatments were given for 10 minutes at 37° C. 5% CO2, prior to 5 minutes illumination. Plates were subsequently incubated for 2 hours in an incubator (37° C. 5% CO2), then centrifuged for 5 minutes at 400×g, after which 50 μL supernatant from each sample was transferred to a 96 well plate for absorbance measurements according to kit instructions. 490 nm absorbance reflects LDH and 680 nm reflects absorbance background from the instrument. 490 nm absorbance minus 680 nm absorbance is directly proportional to the amount of LDH released into the medium.

HEK293 cells [4] = assay: Cellular morphology after photochemical treatment (Nomarski/fluorescence microscopy); format: cell-based; conditions: HEK293, 5 μg/mL 10 min
Protocol: HEK293 cells were incubated with 5 μg/mL TPCS2a complete DMEM for 10 minutes, followed by irradiation with blue light for 5 minutes. Blue light irradiation/illumination was performed using LumiSource according to the manufacturer's protocol (PCI Biotech). Cells were imaged by light (Nomarski) and fluorescence microscopy prior to illumination and 2 hours after illumination. Imaging was performed as described in Example 2.

HEK293 cells [5] = assay: DNA leakage by Hoechst 33258 staining and microscopy, photochemical vs detergent lysis; format: cell-based; conditions: HEK293, TPCS2a 5 μg/mL or Tween 20 0.5%, 10 min, irradiation 5 minutes, 2 hours after
Protocol: HEK293 cells were incubated with 5 μg/mL TPCS2a or 0.5% Tween 20 in complete DMEM for 10 minutes followed by irradiation for 5 minutes. Blue light irradiation/illumination was performed using LumiSource according to the manufacturer's protocol (PCI Biotech). A negative control of complete DMEM containing the TPCS2a solvent was used to control for solvent effects on cell morphology and lysis.
Hoechst 33258 stain was added to samples 2 minutes prior to imaging. Hoechst 33258 staining was performed according to the manufacturer's protocol (Thermo Fisher Scientific). The cells were imaged by light (Nomarski) and fluorescence microscopy prior to irradiation and 2 hours after irradiation. Imaging was performed as described in Example 2. Changes to cellular morphology were analysed visually.

Jurkat cells [6] = assay: MTS assay of metabolic activity/viability after TPCS2a and blue light; format: cell-based; conditions: 48 hours incubation
Protocol: as §1, §2
MTS metabolism was performed as a measure of metabolic activity and performed according the manufacturer's protocol (Promega).

HEK293T suspension cells = assay: Photochemical lysis of suspension cells studied by microscopy; format: cell-based; conditions: 5 μg/mL 10 min + blue light 5 minutes, 2 hours after
Protocol: HEK293T suspension cells were treated with 5 μg/mL TPCS2a (fimaporfin) or fimaporfin solvent without photosensitiser (“Neg. Ctrl”) in complete DMEM for 10 minutes, followed by blue light illumination for 5 minutes (as described in Example 6). Hoechst 33258 was added to samples 2 minutes prior to imaging. Hoechst 33258 DNA stain is not readily cell penetrable, and therefore stains free DNA or DNA in cells with plasma membrane pores.
Cells were washed in PBS/1% FBS prior to imaging to remove unbound fimaporfin. Cells were imaged by light (Nomarski) microscopy and fimaporfin and Hoechst fluorescence by fluorescence microscopy after 10 minutes (i.e. prior to illumination) and 2 hours after illumination. Imaging was conducted as set out in Example 2.

HEK293T cells [7] = assay: Release of AAV2 viral vectors from producer cells (ddPCR of DNase-resistant vg in supernatant); format: cell-based; conditions: adherent HEK293T, TPCS2a 5 μg/mL 10 min, blue light 5 minutes, supernatant 2 hours later
Protocol: 75-80% confluent HEK293T cells were triple transfected with Adeno-associated virus serotype 2 (AAV)-encoding plasmids (pHelper, AAV2 RepCap, and pscAAV-GFP plasmids) using polyethylenimine (PEI) in 12 well plates, resulting in AAV2 production. For each transfection, plasmids and PEI were added to complete DMEM to a total volume of 640 μL, followed by vortexing for 10 seconds and 15 minutes incubation at room temperature. Medium was removed from the HEK293T cells in 12 well plates, and replaced by the DMEM-plasmid-PEI mixture. Cells were incubated for three days at 37° C. and 5% CO2. Three days after transfection, cells were subjected to treatments (as described below) for 10 minutes in complete DMEM.
Treatments were: • a) Untransfected cells, no further treatment. • b) Transfected cells. Received photosensitiser solvent but no photosensitiser (to control for solvent effect on cell lysis). • c) Transfected cells. Incubated with 5 μg/mL TPCS2a (Fimaporfin) for 10 minutes. […]
Supernatants were harvested 2 hours later and cell debris (if any) was eliminated by centrifugation. DNase-resistant viral genome (vg) from all samples was quantified by digital droplet PCR amplification (Bio-Rad QX600) of DNase-resistant (i.e. viral capsid-encapsulated) DNA using primers targeting inverted terminal repeats. Viral vector yield was expressed as “vg/mL” (AAV vector genomes per millilitre).

Jurkat cells [8] = assay: Cell counting (Coulter Counter) as measure of cell growth; format: cell-based; conditions: higher dose (1 ug/mL) vs 0.1 ug/mL at corresponding irradiation times, 48 hours after irradiation
Protocol: as §1, §2
Cell counting was performed as a measure of cell growth using a Coulter Counter by Beckman Coulter according to the manufacturer's protocol. Counting was performed 48 hours after irradiation.

## tetraphenyl chlorin disulfonate [TPCS2a]
Jurkat cells [1]; TPCS2a 0.1 μg/ml 10 min, various irradiation times
  cell death (Hoechst 33258 staining): some cell death but only at longer irradiation times
Jurkat cells [1]; TPCS2a 1 μg/ml 10 min, after 2 minutes of irradiation
  cell death (Hoechst 33258 staining): significant cell death
HEK293T cells [2]
  genomic DNA leakage into supernatant (ddPCR): does not cause the leakage of genomic DNA
HEK293 cells [3]; HEK293, 10% FBS DMEM, TPCS2a 50 μg/mL, blue light 5 minutes
  LDH release: increased significantly
HEK293 cells [3]; HEK293, 10% FBS DMEM, TPCS2a 50 μg/mL, no irradiation
  LDH release: comparable levels of LDH release to HEK293 cells treated with a negative control
HEK293 cells [3]; HEK293, serum-free DMEM, TPCS2a 0.5 μg/mL or Tween 20 0.5%, blue light 5 minutes
  LDH release: increased significantly
HEK293 cells [3]; HEK293, serum-free DMEM, TPCS2a 0.5 μg/mL or Tween 20 0.5%, no irradiation
  LDH release: comparable levels of LDH release to HEK293 cells treated with a negative control
HEK293 cells [4]; absence of irradiation
  cellular morphology: do not exhibit changes to their cellular morphology
HEK293 cells [4]; blue light 5 minutes, 2 hours after illumination
  cellular morphology: dramatically altered cellular morphology and had shifted to a lytic phenotype
HEK293 cells [5]
  DNA leakage (Hoechst 33258 microscopy): DNA stays within the boundaries of the cell corpse
Jurkat cells [6]; TPCS2a 1 μg/ml 10 min, 4-5 minutes irradiation
  cell viability (MTS absorbance): total loss of viability
Jurkat cells [6]; TPCS2a 0.1 or 1 ug/mL 10 min, blue light 2-5 minutes
  cell viability (MTS absorbance): reductions in viability
HEK293T suspension cells
  DNA retention (Hoechst 33258 microscopy): DNA is retained within the boundaries of the lysed cells
  plasma membrane disruption: opens up the plasma membrane
HEK293T cells [7]
  release of AAV2 viral vectors into supernatant: releases non-enveloped viral vectors from producer cells
Jurkat cells [8]
  cell density (cell counting): reduced cell density
